From PubChem BioAssay AID1963834 (Molecular Pharmacology Branch, DTP, NCI, 2024)

Tested on: 873145-292-R-J1-PDC complex spheroid viability
Assay: Anticancer human tumor 873145-292-R-J1-PDC patient-derived renal clear cell carcinoma cell line growth inhibition [POLQ]
Settings: for IC50: curve of first compound; for viability, T/C: stronger effect = lower value
Summary of the method: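 Growth inhibition in 3D: complex spheroids (tumor PDC, HUVEC, MSC) treated with POLQ inhibitor combinations; where Cmax unknown, highest tested concentration 10 microM, except SN-38 at 1 microM.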
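Further: spheroids exposed to compounds for 7 days before viability readout.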
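Wherever viability, T/C is given: luminescence signal used as surrogate for viable cell content; 100% = DMSO vehicle control viability.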

## C#Cc1c(F)ccc2cc(O)cc(-c3ncc4c(N5CC6CCC(C5)N6)nc(OCC56CCCN5CC(F)C6)nc4c3F)c12 (configuration not stated) + Nc1ccc(C#CCN(C(=O)Cc2ncc(C(F)(F)F)cc2C(F)(F)F)c2ccc(F)cc2)nn1
Second compound 0.0316 µM
  IC50: > 10 µM
Second compound 0.1 µM
  IC50: > 10 µM
Second compound 0.316 µM
  IC50: > 10 µM
Second compound 1 µM
  IC50: > 10 µM
Second compound 3.16 µM
  IC50: > 10 µM
Second compound 10 µM
  IC50: > 10 µM
Second compound 0.0316 µM, first compound 0.0316 µM
  viability, T/C: 102%
Second compound 0.0316 µM, first compound 0.1 µM
  viability, T/C: 103%
Second compound 0.0316 µM, first compound 0.316 µM
  viability, T/C: 106%
Second compound 0.0316 µM, first compound 1 µM
  viability, T/C: 99.4%
Second compound 0.0316 µM, first compound 3.16 µM
  viability, T/C: 105%
Second compound 0.0316 µM, first compound 10 µM
  viability, T/C: 97.1%
Second compound 0.1 µM, first compound 0.0316 µM
  viability, T/C: 115%
Second compound 0.1 µM, first compound 0.1 µM
  viability, T/C: 110%
Second compound 0.1 µM, first compound 0.316 µM
  viability, T/C: 96.6%
Second compound 0.1 µM, first compound 1 µM
  viability, T/C: 108%
Second compound 0.1 µM, first compound 3.16 µM
  viability, T/C: 101%
Second compound 0.1 µM, first compound 10 µM
  viability, T/C: 91.9%
Second compound 0.316 µM, first compound 0.0316 µM
  viability, T/C: 101%
Second compound 0.316 µM, first compound 0.1 µM
  viability, T/C: 106%
Second compound 0.316 µM, first compound 0.316 µM
  viability, T/C: 84%
Second compound 0.316 µM, first compound 1 µM
  viability, T/C: 104%
Second compound 0.316 µM, first compound 3.16 µM
  viability, T/C: 98.8%
Second compound 0.316 µM, first compound 10 µM
  viability, T/C: 86.7%
Second compound 1 µM, first compound 0.0316 µM
  viability, T/C: 108%
Second compound 1 µM, first compound 0.1 µM
  viability, T/C: 93.8%
Second compound 1 µM, first compound 0.316 µM
  viability, T/C: 111%
Second compound 1 µM, first compound 1 µM
  viability, T/C: 97.9%
Second compound 1 µM, first compound 3.16 µM
  viability, T/C: 104%
Second compound 1 µM, first compound 10 µM
  viability, T/C: 95.4%
Second compound 3.16 µM, first compound 0.0316 µM
  viability, T/C: 106%
Second compound 3.16 µM, first compound 0.1 µM
  viability, T/C: 100%
Second compound 3.16 µM, first compound 0.316 µM
  viability, T/C: 107%
Second compound 3.16 µM, first compound 1 µM
  viability, T/C: 106%
Second compound 3.16 µM, first compound 3.16 µM
  viability, T/C: 90.7%
Second compound 3.16 µM, first compound 10 µM
  viability, T/C: 101%
Second compound 10 µM, first compound 0.0316 µM
  viability, T/C: 108%
Second compound 10 µM, first compound 0.1 µM
  viability, T/C: 98.7%
Second compound 10 µM, first compound 0.316 µM
  viability, T/C: 104%
Second compound 10 µM, first compound 1 µM
  viability, T/C: 98.2%
Second compound 10 µM, first compound 3.16 µM
  viability, T/C: 109%
Second compound 10 µM, first compound 10 µM
  viability, T/C: 105%
